Data from the NIST ThermoML archive (doi:10.1021/je100554g).

Assays:
[1] = xn = mol fraction of the nth substance listed; details: 101 kPa, Liquid, Pulse-echo method
[2] = 101.33 kPa, Liquid, Pulse-echo method

[Cl][Nd]([Cl])[Cl] [neodymium(III) chloride] + [Cl-].[K+]
[1]
Details | speed of sound [m/s]
1007 K, x1 = 0.75 | 1275
1037 K, x1 = 0.75 | 1259
1053 K, x1 = 0.37 | 1283
1058 K, x1 = 0.25 | 1370
1063 K, x1 = 0.5 | 1259
1067 K, x1 = 0.75 | 1240
1076 K, x1 = 0.25 | 1355
1080 K, x1 = 0.37 | 1260
1088 K, x1 = 0.5 | 1240
1096 K, x1 = 0.25 | 1340
1110 K, x1 = 0.37 | 1250
1110 K, x1 = 0.75 | 1225
1118 K, x1 = 0.25 | 1315
1124 K, x1 = 0.5 | 1230
1128 K, x1 = 0.37 | 1241
1139 K, x1 = 0.75 | 1210
1145 K, x1 = 0.37 | 1223
1146 K, x1 = 0.25 | 1300
1150 K, x1 = 0.5 | 1214
1163 K, x1 = 0.75 | 1197
1173 K, x1 = 0.37 | 1212
1176 K, x1 = 0.25 | 1256
1178 K, x1 = 0.37 | 1200
1185 K, x1 = 0.5 | 1190
1186 K, x1 = 0.25 | 1260
1203 K, x1 = 0.5 | 1186
1213 K, x1 = 0.25 | 1234

[Cl-].[Li+] [lithium chloride]
[2]
Details | speed of sound [m/s]
950 K | 1988
976 K | 1973
1003 K | 1945
1030 K | 1924
1062 K | 1894
1082 K | 1879
1110 K | 1858
1148 K | 1825
1181 K | 1791

[Cl][Nd]([Cl])[Cl] [neodymium(III) chloride] + [Cl-].[Cs+]
[1]
Details | speed of sound [m/s]
913 K, x1 = 0.45 | 1110
968 K, x1 = 0.45 | 1080
998 K, x1 = 0.8 | 1205
1008 K, x1 = 0.45 | 1053
1043 K, x1 = 0.8 | 1172
1061 K, x1 = 0.45 | 1026
1083 K, x1 = 0.8 | 1148
1112 K, x1 = 0.45 | 998
1123 K, x1 = 0.8 | 1129
1138 K, x1 = 0.45 | 980
1143 K, x1 = 0.8 | 1115
1147 K, x1 = 0.25 | 969
1169 K, x1 = 0.25 | 961
1188 K, x1 = 0.25 | 953
1207 K, x1 = 0.25 | 949
1226 K, x1 = 0.25 | 941
1245 K, x1 = 0.25 | 934

[Cl][Nd]([Cl])[Cl] [neodymium(III) chloride]
[2]
Details | speed of sound [m/s]
1044 K | 1248
1045 K | 1259
1075 K | 1237
1083 K | 1227
1099 K | 1227
1148 K | 1223
1165 K | 1212
1184 K | 1188
1218 K | 1190

[Cl][Nd]([Cl])[Cl] [neodymium(III) chloride] + [Cl-].[Na+]
[1]
Details | speed of sound [m/s]
1009 K, x1 = 0.365 | 1450
1048 K, x1 = 0.365 | 1418
1053 K, x1 = 0.2 | 1520
1063 K, x1 = 0.75 | 1290
1073 K, x1 = 0.2 | 1502
1073 K, x1 = 0.75 | 1285
1074 K, x1 = 0.365 | 1389
1090 K, x1 = 0.44 | 1350
1100 K, x1 = 0.365 | 1368
1103 K, x1 = 0.2 | 1465
1103 K, x1 = 0.44 | 1340
1103 K, x1 = 0.75 | 1270
1115 K, x1 = 0.44 | 1325
1123 K, x1 = 0.44 | 1330
1127 K, x1 = 0.2 | 1476
1128 K, x1 = 0.365 | 1354
1133 K, x1 = 0.44 | 1325
1133 K, x1 = 0.75 | 1256
1143 K, x1 = 0.2 | 1447
1143 K, x1 = 0.44 | 1322
1150 K, x1 = 0.44 | 1307
1154 K, x1 = 0.75 | 1250
1155 K, x1 = 0.365 | 1357
1173 K, x1 = 0.2 | 1420
1175 K, x1 = 0.365 | 1340
1176 K, x1 = 0.75 | 1240

[Cl][Nd]([Cl])[Cl] [neodymium(III) chloride] + [Cl-].[Li+]
[1], x1 = 0.5
Details | speed of sound [m/s]
995 K | 1395
1033 K | 1374
1108 K | 1350
1133 K | 1331
1167 K | 1326
